# Patent US20250382305A1 (PTC THERAPEUTICS, INC., priority 2022, published 2025)
# Key:
# ATXN3 pre-mRNA = experiment: RT-qPCR Assay to Quantify Exon 4 Skipping in ATXN3 pre-mRNA in Cells; assay type: cell-based; details: percent exon 4 skipping in ATXN3 pre-mRNA, RT-qPCR of cell lysates; average IC50
# Procedure, shortened: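 Cells plated at 10,000/well onto a 7-point, 3.16-fold DMSO dilution series (duplicates), incubated 24 h at 37 °C, then lysed. Exon 4 skipping measured by one-step RT-qPCR (48 °C RT, 40 cycles); IC50 interpolated from dose-response fit of percent skipping.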
# [1] = test system: Total ATXN3 (tATXN3) protein; experiment: Endogenous Total ATXN3 (tATXN3) Protein Assay (MSD immunoassay of cell lysates); assay type: cell-based; details: average IC50, total ATXN3 protein in cell lysate after 48 h with compound (Table 1)
# Procedure, shortened: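 Cells in DMEM/10% FBS were plated at 10,000 per well onto 7-point, 3.16-fold compound dilutions in duplicate for 48 h at 37° C, then lysed. Total ATXN3 in lysates was measured by MSD sandwich immunoassay: mouse anti-ATXN3 capture, rabbit anti-ATXN3 detection, SULFO-TAG anti-rabbit. Average IC50 was reported in star bins.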
Compound,IC50 (ATXN3 pre-mRNA),IC50 [1]
"Cc1c([C@H]2CCCC[C@@H]2N)sc2c(NCc3ccccc3)cc(Cl)nc12 [Compound 280, 2-((1S,2S)-2-aminocyclohexyl)-N-benzyl-5-chloro-3-methylthieno[3,2-b]pyridin-7-amine]",30 to 300 nM,30 to 300 nM
"N[C@H]1CCCO[C@@H]1c1c(Br)c2nc(Cl)cc(NCc3cccs3)c2n1C(F)F [Compound 281, 2-((2S,3S)-3-aminotetrahydro-2H-pyran-2-yl)-3-bromo-5-chloro-1-(difluoromethyl)-N-(thiophen-2-ylmethyl)-1H-pyrrolo[3,2-b]pyridin-7-amine]",30 to 300 nM,30 to 300 nM
"CC#CCNc1cc(Cl)nc2c(I)c([C@H]3CCCC[C@@H]3N)sc12 [Compound 283, 2-((1S,2S)-2-aminocyclohexyl)-N-(but-2-yn-1-yl)-5-chloro-3-iodothieno[3,2-b]pyridin-7-amine]",30 to 300 nM,30 to 300 nM
"N[C@H]1COCC[C@@H]1c1sc2c(NCc3nccs3)cc(Cl)nc2c1Br [Compound 285, 2-((3R,4S)-3-aminotetrahydro-2H-pyran-4-yl)-3-bromo-5-chloro-N-(thiazol-2-ylmethyl)thieno[3,2-b]pyridin-7-amine]",30 to 300 nM,30 to 300 nM
"N[C@H]1CC=CC[C@@H]1c1sc2c(NCc3ccccc3F)cc(Cl)nc2c1Br [Compound 287, 2-((1S,6S)-6-aminocyclohex-3-en-1-yl)-3-bromo-5-chloro-N-(2-fluorobenzyl)thieno[3,2-b]pyridin-7-amine]",30 to 300 nM,30 to 300 nM
"Cc1c([C@H]2CC=CC[C@@H]2N)sc2c(NCc3ccco3)cc(C#N)nc12 [Compound 289, 2-((1S,6S)-6-aminocyclohex-3-en-1-yl)-7-((furan-2-ylmethyl)amino)-3-methylthieno[3,2-b]pyridine-5-carbonitrile]",30 to 300 nM,30 to 300 nM
"N[C@H]1CCCC(F)(F)[C@@H]1c1sc2c(NCc3cccs3)cc(Cl)nc2c1Cl [Compound 291, 2-((1R,6S)-6-amino-2,2-difluorocyclohexyl)-3,5-dichloro-N-(thiophen-2-ylmethyl)thieno[3,2-b]pyridin-7-amine]",30 to 300 nM,30 to 300 nM
"[2H]C1=C([2H])C([2H])([2H])[C@H](c2sc3c(NCc4ccccc4)cc(Cl)nc3c2C)[C@@H](N)C1([2H])[2H] [Compound 292, 2-((1S,6S)-6-aminocyclohex-3-en-1-yl-2,2,3,4,5,5-d6)-N-benzyl-5-chloro-3-methylthieno[3,2-b]pyridin-7-amine]",30 to 300 nM,30 to 300 nM
"N[C@@H]1CCCC[C@H]1c1sc2c(NCc3ccco3)cc(Cl)nc2c1Cl [Compound 296, 2-((1R,2R)-2-aminocyclohexyl)-3,5-dichloro-N-(furan-2-ylmethyl)thieno[3,2-b]pyridin-7-amine]",30 to 300 nM,30 to 300 nM
"N[C@H]1[C@H](O)CCC[C@@H]1c1sc2c(NCc3cccs3)cc(Cl)nc2c1Cl [Compound 298, (1R,2R,3S)-2-amino-3-(3,5-dichloro-7-((thiophen-2-ylmethyl)amino)thieno[3,2-b]pyridin-2-yl)cyclohexan-1-ol]",30 to 300 nM,30 to 300 nM
"N[C@@H]1CC=CC[C@H]1c1sc2c(NCc3ccco3)cc(Cl)nc2c1Cl [Compound 299, 2-((1R,6R)-6-aminocyclohex-3-en-1-yl)-3,5-dichloro-N-(furan-2-ylmethyl)thieno[3,2-b]pyridin-7-amine]",30 to 300 nM,30 to 300 nM
"CC#CCNc1cc(Cl)nc2c(Br)c([C@H]3CCCC[C@@H]3N)sc12 [Compound 301, 2-((1S,2S)-2-aminocyclohexyl)-3-bromo-N-(but-2-yn-1-yl)-5-chlorothieno[3,2-b]pyridin-7-amine]",30 to 300 nM,30 to 300 nM
"C/C=C/CNc1cc(Cl)nc2c(Cl)c([C@H]3CC=CC[C@@H]3N)sc12 [Compound 302, 2-((1S,6S)-6-aminocyclohex-3-en-1-yl)-N-((E)-but-2-en-1-yl)-3,5-dichlorothieno[3,2-b]pyridin-7-amine]",30 to 300 nM,30 to 300 nM
"CN[C@H]1CC=CC[C@@H]1c1sc2c(NCc3cccs3)cc(Cl)nc2c1C#CCCO [Compound 303, 4-(5-chloro-2-((1S,6S)-6-(methylamino)cyclohex-3-en-1-yl)-7-((thiophen-2-ylmethyl)amino)thieno[3,2-b]pyridin-3-yl)but-3-yn-1-ol]",30 to 300 nM,30 to 300 nM
"N[C@H]1CCCC[C@@H]1c1c(I)c2nc(Cl)nc(NCc3ccco3)c2n1C(F)F [Compound 304, 6-((1S,2S)-2-aminocyclohexyl)-2-chloro-5-(difluoromethyl)-N-(furan-2-ylmethyl)-7-iodo-5H-pyrrolo[3,2-d]pyrimidin-4-amine]",30 to 300 nM,30 to 300 nM
"N[C@H]1CCCO[C@@H]1c1c(Cl)c2nc(Cl)nc(NCc3cccs3)c2n1C(F)F [Compound 305, 6-((2S,3S)-3-aminotetrahydro-2H-pyran-2-yl)-2,7-dichloro-5-(difluoromethyl)-N-(thiophen-2-ylmethyl)-5H-pyrrolo[3,2-d]pyrimidin-4-amine]",30 to 300 nM,30 to 300 nM

# Continued, values first:
IC50 (ATXN3 pre-mRNA),IC50 [1],Compound
30 to 300 nM,30 to 300 nM,"CC#CCNc1cc(Cl)nc2c(C)c([C@H]3CC=CC[C@@H]3N)sc12 [Compound 306, 2-((1S,6S)-6-aminocyclohex-3-en-1-yl)-N-(but-2-yn-1-yl)-5-chloro-3-methylthieno[3,2-b]pyridin-7-amine]"
30 to 300 nM,30 to 300 nM,"N[C@H]1CC=CC[C@@H]1c1sc2c(NCc3cccs3)cc(Cl)nc2c1C#Cc1cccnc1 [Compound 307, 2-((1S,6S)-6-aminocyclohex-3-en-1-yl)-5-chloro-3-(pyridin-3-ylethynyl)-N-(thiophen-2-ylmethyl)thieno[3,2-b]pyridin-7-amine]"
30 to 300 nM,30 to 300 nM,"CC#CCNc1cc(Cl)nc2c(Cl)c([C@H]3CCCC[C@@H]3N)sc12 [Compound 308, 2-((1S,2S)-2-aminocyclohexyl)-N-(but-2-yn-1-yl)-3,5-dichlorothieno[3,2-b]pyridin-7-amine]"
30 to 300 nM,30 to 300 nM,"N[C@@H]1CC=CC[C@H]1c1sc2c(NCc3ccco3)cc(Cl)nc2c1Br [Compound 310, 2-((1R,6R)-6-aminocyclohex-3-en-1-yl)-3-bromo-5-chloro-N-(furan-2-ylmethyl)thieno[3,2-b]pyridin-7-amine]"
30 to 300 nM,30 to 300 nM,"C#Cc1c([C@H]2CCCC[C@@H]2N)sc2c(NCc3ccccc3F)cc(Cl)nc12 [Compound 311, 2-((1S,2S)-2-aminocyclohexyl)-5-chloro-3-ethynyl-N-(2-fluorobenzyl)thieno[3,2-b]pyridin-7-amine]"
30 to 300 nM,30 to 300 nM,"Cc1c([C@H]2CC=C(C(=O)N(C)C)C[C@@H]2N)sc2c(NCc3cccs3)cc(Cl)nc12 [Compound 312, (4S,5S)-5-amino-4-(5-chloro-3-methyl-7-((thiophen-2-ylmethyl)amino)thieno[3,2-b]pyridin-2-yl)-N,N-dimethylcyclohex-1-ene-1-carboxamide]"
30 to 300 nM,30 to 300 nM,"Cc1c([C@H]2CC=C(C(=O)N3CCOCC3)C[C@@H]2N)sc2c(NCc3cccs3)cc(Cl)nc12 [Compound 313, ((4S,5S)-5-amino-4-(5-chloro-3-methyl-7-((thiophen-2-ylmethyl)amino)thieno[3,2-b]pyridin-2-yl)cyclohex-1-en-1-yl)(morpholino)methanone]"
30 to 300 nM,30 to 300 nM,"CC#Cc1c([C@@H]2CCCC[C@H]2N)n(C(F)F)c2c(NCc3ccco3)nc(Cl)nc12 [Compound 318, 6-((1R,2R)-2-aminocyclohexyl)-2-chloro-5-(difluoromethyl)-N-(furan-2-ylmethyl)-7-(prop-1-yn-1-yl)-5H-pyrrolo[3,2-d]pyrimidin-4-amine]"
30 to 300 nM,30 to 300 nM,"N[C@H]1CC=CC[C@@H]1c1sc2c(NCc3cccs3)cc(Cl)nc2c1C#CCCCCCO [Compound 320, 7-(2-((1S,6S)-6-aminocyclohex-3-en-1-yl)-5-chloro-7-((thiophen-2-ylmethyl)amino)thieno[3,2-b]pyridin-3-yl)hept-6-yn-1-ol]"
30 to 300 nM,30 to 300 nM,"Cc1c([C@H]2COCC[C@@H]2N)sc2c(NCc3ccccc3)cc(Cl)nc12 [Compound 321, 2-((3R,4S)-4-aminotetrahydro-2H-pyran-3-yl)-N-benzyl-5-chloro-3-methylthieno[3,2-b]pyridin-7-amine]"
30 to 300 nM,30 to 300 nM,"[2H]C1=C([2H])C([2H])([2H])[C@H](c2sc3c(NC([2H])([2H])c4ccccc4)cc(Cl)nc3c2C)[C@@H](N)C1([2H])[2H] [Compound 322, 2-((1S,6S)-6-aminocyclohex-3-en-1-yl-2,2,3,4,5,5-d6)-5-chloro-3-methyl-N-(phenylmethyl-d2)thieno[3,2-b]pyridin-7-amine]"
30 to 300 nM,30 to 300 nM,"N[C@@H]1CC=CC[C@H]1c1sc2c(NCc3ccco3)nc(Cl)nc2c1I [Compound 323, 6-((1R,6R)-6-aminocyclohex-3-en-1-yl)-2-chloro-N-(furan-2-ylmethyl)-7-iodothieno[3,2-d]pyrimidin-4-amine]"
30 to 300 nM,30 to 300 nM,"N[C@H]1CC=CC[C@@H]1c1c(I)c2nc(Cl)cc(NCc3cccs3)c2n1C(F)F [Compound 325, 2-((1S,6S)-6-aminocyclohex-3-en-1-yl)-5-chloro-1-(difluoromethyl)-3-iodo-N-(thiophen-2-ylmethyl)-1H-pyrrolo[3,2-b]pyridin-7-amine]"
30 to 300 nM,30 to 300 nM,"Cc1c([C@H]2CC=CC[C@@H]2N)sc2c(NCc3ccccc3)nc(Cl)nc12 [Compound 326, 6-((1S,6S)-6-aminocyclohex-3-en-1-yl)-N-benzyl-2-chloro-7-methylthieno[3,2-d]pyrimidin-4-amine]"
